IE %, activity and EC50 data for nine compounds are collected here from patent publication US10487071B2, “Bis-triazole compounds with anti-biofilm and anti-corrosion properties” (Université de Toulon, priority 2015, dated 2019).

The nature of experiment [1]: Gravimetry (weight loss), corrosion inhibition. The following applies: mild steel in 1N HCl. As for the experimental part:
The corrosion rates were determined by electrochemical impedance spectroscopy measurements and gravimetry.
Weight loss measurements were performed on 2.5×2.0×0.1 cm rectangular mild steel coupons. The mild steel coupons were immersed into non-de-aerated HCl 1N solution in absence and presence of different concentrations of compounds of general formula (I). After the elapsed time, the coupons were taken out, washed, dried and weighed accurately. Experiments were duplicated.
Weight loss experiments were done to confirm the corrosion inhibitive properties of AS164.
The inhibition efficiency, IE (%), was estimated from the weight loss experiments using the following equation:
[formula] wherein CR^o and CR are respectively the corrosion rate in the absence and presence of AS164.

Experiment [2] concerns Pseudoalteromonas ulvae (TC14). Briefly: Anti-adhesion test, strain TC14. It is filed as cell-based. The following applies: Pseudoalteromonas ulvae; for activity at 200 µM: 15 h. As for the experimental part:
(§1) Bacterial strains were grown on Väätänen nine-salts solution (VNSS). When the stationary phase was reached, the bacterial suspension was centrifuged. Cells were then diluted in sterile artificial sea water (ASW) and introduced in microtiter plates (sterile black PS; Nunc, Fisher Scientific, France) with the tested compound (at eight concentrations in three replicates) in the presence of three controls: (i) non-specific staining control, (ii) adhesion control, and (iii) positive control. The maximum percentage of solvent (DMSO 2%) used to dilute the tested compound was also tested in triplicate as additional control. After incubation during an optimized adhesion time (moderately 15 h), non-adhered bacteria were eliminated and adhered cells were quantified after SYTO 61 (1 μM) staining. A percentage of inhibition was calculated per well. A sigmoid dose-response curve was obtained by plotting the percentage of inhibition as a function of the log of tested compound concentration, after mean (n=3) and standard deviation (SD) calculation per triplicate for each concentration. EC50 values were then calculated for each compound.
Pseudoalteromonas ulvae (TC14) was isolated in June 2010 in the Military Harbor of Toulon (Mediterranean Sea, France) as described in F. Brian-Jaisson, A. Ortalo-Magné, L. Guentas-Dombrowsky, F. Armougom, Y. Blache, M. Molmeret, Microb. Ecol., 2014, 68, 94-110.

For experiment [3], the system named is Pseudoalteromonas lipolytica (TC8). The experiment can be described thus: Anti-adhesion test, strain TC8. It is filed as cell-based. The following applies: for activity at 200 µM: 15 h, read-out: % of adhesion at 200 μM, TC8; for EC50: read-out: EC50 (effective concentration to inhibit 50% of the adhesion), TC8. Here is the method:
(§2) The anti-adhesion bioassays and toxicity tests are adapted from those disclosed in M. Camps, J.-F. Briand, L. Guentas-Dombrowsky, G. Culioli, A. Bazire and Y. Blache, Mar. Poll.
as §1

The next experiment deals with Paracoccus sp. (4M6). The experiment can be described thus: Anti-adhesion test, strain 4M6. It is filed as cell-based. The following applies: for activity at 200 µM: 15 h, read-out: % of adhesion at 200 μM, 4M6; for EC50: read-out: EC50 (effective concentration to inhibit 50% of the adhesion), 4M6. As for the experimental part:
as §2, §1

Read-outs that look alike come from different tables or passages of the source.

With `CN(C)CCOc1ccc(CCn2cc(-c3ccc(-c4cn(CCc5ccc(OCCN(C)C)cc5)nn4)cc3)nn2)cc1` [SA11, 2-(4-(2-(4-(4-(1-(4-(2-(dimethylamino)ethoxy)phenethyl)-1H-1,2,3-triazol-4-yl)phenyl)-1H-1,2,3-triazol-1-yl)ethyl)phenoxy)-N,N-dimethylethanamine], the IE % in experiment [1] (0.1 ppm) stood at 90.50%; in experiment [1] (0.3 ppm) it was 93.32%; in experiment [1] (0.5 ppm) it was 95.49%; in experiment [1] (2 ppm), 96.95%; in experiment [1] (10 ppm), 97.11%.
`CN(C)CCCOc1ccc(CCn2cc(-c3cccc(-c4cn(CCc5ccc(OCCCN(C)C)c(Br)c5)nn4)c3)nn2)cc1Br` [AS171, 3-(4-(2-(4-(3-(1-(4-(3-(dimethylamino)propoxy)-3-bromophenethyl)-1H-1,2,3-triazol-4-yl)phenyl)-1H-1,2,3-triazol-1-yl)ethyl)-2-bromophenoxy)-N,N-dimethylpropan-1-amine]: the IE % was determined as 53.82% in experiment [1] (0.1 ppm); 86.91% in experiment [1] (0.3 ppm); 91.72% in experiment [1] (0.5 ppm); 97.25% in experiment [1] (2 ppm); 98.51% in experiment [1] (10 ppm).
As to `Oc1ccc(CCn2cc(-c3cccc(-c4cn(CCc5ccc(O)c(Br)c5)nn4)c3)nn2)cc1Br` [NT24], the activity at 200 µM worked out at 56.7 ± 1.3% in experiment [2], 66.5 ± 11.6% in experiment [3] (Pseudoalteromonas lipolytica) and 61.5 ± 4.2% in the experiment on Paracoccus sp. (4M6) (Paracoccus).
Take “tributyltin oxide [TBTO, reference compound]”: the EC50 was 7 ± 3 µM in experiment [3] (strain TC8) and 4 ± 3 µM with Paracoccus sp. (4M6) (strain 4M6).
As to `Oc1ccc(CCn2cc(CCCCc3cn(CCc4ccc(O)c(Br)c4)nn3)nn2)cc1Br` [NT22, 4-(2-(4-(4-(1-(3-bromo-4-hydroxyphenethyl)-1H-1,2,3-triazol-4-yl)butyl)-1H-1,2,3-triazol-1-yl)ethyl)-2-bromophenol], the activity at 200 µM in experiment [2] was 54.4 ± 1.7%; in experiment [3] (Pseudoalteromonas lipolytica), 85.6 ± 2.1%; in the experiment on Paracoccus sp. (4M6) (Paracoccus), 52.4 ± 2.3%.
`COc1ccc(CCn2cc(COCc3cn(CCc4ccc(OC)c(Br)c4)nn3)nn2)cc1Br` [NT6, 4-(((1-(3-bromo-4-methoxyphenethyl)-1H-1,2,3-triazol-4-yl)methoxy)methyl)-1-(3-bromo-4-methoxyphenethyl)-1H-1,2,3-triazole]: the activity at 200 µM came to 38.4 ± 7.4% in experiment [2], 42.7 ± 6.5% in experiment [3] (Pseudoalteromonas lipolytica) and 44.9 ± 3.1% with Paracoccus sp. (4M6) (Paracoccus). The EC50 in experiment [2] (read-out: EC50 (effective concentration to inhibit 50% of the adhesion)) worked out at 160 ± 33.5 µM; in experiment [3] (Pseudoalteromonas lipolytica), 181 ± 21.3 µM; in the experiment on Paracoccus sp. (4M6) (Paracoccus), 164 ± 6.3 µM.
For the compound `CN(C)CCCOc1ccc(CCn2cc(CCCc3cn(CCc4ccc(OCCCN(C)C)c(Br)c4)nn3)nn2)cc1Br` [AS168, 3-(4-(2-(4-(3-(1-(4-(3-(dimethylamino)propoxy)-3-bromophenethyl)-1H-1,2,3-triazol-4-yl)propyl)-1H-1,2,3-triazol-1-yl)ethyl)-2-bromophenoxy)-N,N-dimethylpropan-1-amine], the activity at 200 µM in experiment [2] was 53.8 ± 5.9%; in experiment [3] (Pseudoalteromonas lipolytica), 59.9 ± 6.4%; with Paracoccus sp. (4M6) (Paracoccus), 77.1 ± 2.4%.
On to `CN(C)CCOc1ccc(CCCn2cc(-c3ccc(-c4cn(CCCc5ccc(OCCN(C)C)c(Br)c5)nn4)cc3)nn2)cc1Br` [SA31, 2-(4-(3-(4-(4-(1-(3-(4-(2-(dimethylamino)ethoxy)-3-bromophenyl)propyl)-1H-1,2,3-triazol-4-yl)phenyl)-1H-1,2,3-triazol-1-yl)propyl)-2-bromophenoxy)-N,N-dimethylethanamine], for which the IE % in experiment [1] (0.1 ppm) is listed as 80.79%; in experiment [1] (0.3 ppm), 93.00%; in experiment [1] (0.5 ppm) it was 95.44%; in experiment [1] (2 ppm), 96.17%; in experiment [1] (10 ppm), 96.56%.
For `CN(C)CCOc1ccc(CCn2cc(-c3cccc(-c4cn(CCc5ccc(OCCN(C)C)c(Br)c5)nn4)c3)nn2)cc1Br` [AS161, 2-(4-(2-(4-(3-(1-(4-(2-(dimethylamino)ethoxy)-3-bromophenethyl)-1H-1,2,3-triazol-4-yl)phenyl)-1H-1,2,3-triazol-1-yl)ethyl)-2-bromophenoxy)-N,N-dimethylethanamine], the IE % came to 86.75% in experiment [1] (0.1 ppm); 86.21% in experiment [1] (0.3 ppm); 94.07% in experiment [1] (0.5 ppm); 97.10% in experiment [1] (2 ppm); 98.33% in experiment [1] (10 ppm).
